Data published in US12479886B2, “Inhibitors of IL-15 and their use in treating autoimmune/inflammatory disorders” (University of Houston System, priority 2019, dated 2025).
Bridge positions count the residues as written; N and C are the ends. Square brackets hold non-standard residues; d marks the D form. Peptide text beside a SMILES is read from it. I, II: the chains in the order shown. N(4-MeOBn)Gly = COc1ccc(CNCC(=O)O)cc1; Nleu = CC(C)CNCC(=O)O; Nlys = NCCCCNCC(=O)O; Nme = COCCNCC(=O)O

Experiments:
IL-15 = assay: CTLL-2 proliferation assay (WST-1); type: cell-based, murine
Method: FIGS. 7A-C. IFRA3Q1 inhibits the IL-15 activity. To determine if IFRA3 and its derivatives can regulate the function of IL-15, the inventors performed CTLL-2 proliferation assay. The proliferation of murine T cell line CTLL-2 depends on the presence and activity of IL-15. CTLL-2 cells were seeded into 96-well plates and treated with IL-15 in the presence or absence of IFRA3D1, IFRA3T1, or IFRA3Q1 at indicated concentrations for 72 hours. CTLL-2 cell proliferation was measured by WST-1 assay.
To determine if IFRA3 and its derivatives can regulate the function of IL-15, the inventors performed CTLL-2 proliferation assay. The proliferation of murine T cell line CTLL-2 depends on the presence and activity of IL-15. CTLL-2 cells were seeded into 96-well plates and treated with IL-15 in the presence or absence of IFRA3D1, IFRA3T1, or IFRA3Q1 at indicated concentrations for 72 hours. CTLL-2 cell proliferation was measured by WST-1 assay. […] IFRA3 and its derivatives had no effects on cell proliferation by themselves.

IL-15 Rα = target: T1, IL-15 Rα (Homo sapiens, UniProt Q13261); assay: on-bead two-color (OBTC) screening and validation with IL-15Rα expressing and non-expressing HeLa cells; type: cell-based
T1 construct: Cell lysates from IL-15RA positive HeLa cells (expressing IL15RA) or IL-15RA negative HeLa cells (transfected with IL15RA siRNA to knock down IL15RA); endogenous in cells; host or cells: HeLa
T1 sequence (Q13261 31-267): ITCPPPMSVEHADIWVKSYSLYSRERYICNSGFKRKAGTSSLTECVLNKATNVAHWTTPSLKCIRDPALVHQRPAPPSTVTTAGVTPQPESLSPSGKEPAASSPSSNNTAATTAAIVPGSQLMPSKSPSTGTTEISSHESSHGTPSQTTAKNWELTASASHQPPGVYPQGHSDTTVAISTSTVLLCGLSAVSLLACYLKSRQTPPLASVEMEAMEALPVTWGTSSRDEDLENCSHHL
Method: FIGS. 1A-C. Discovery of the IL-15 receptor a subunit-binding compound IFRA3 through OBTC screening of a peptoid library. To identify compounds that can bind to IL-15 receptor, the inventors performed an on-bead two-color (OBTC) screening experiment. HeLa cells expressing IL-15 Rα were stained with red Qdot® […] nanocrystals and HeLa cells not expressing IL-15 Rα were stained with green Qdot® […] nanocrystals. One million green cells and one million red cells were mixed and incubated for 1 hour with 50,000 peptoid compound library beads containing one-compound on one bead at 23° C. Beads that bind to only red cells but not green cells were isolated under fluorescent microscope and the compound attached to the bead was identified by mass spectrometry. (FIG. 1A) Illustration of the OBTC screening mechanism. (FIG. 1B) One example of the bead that binds only the red cells. (FIG. 1C) The chemical structure of IFRA3, one of the three hits discovered in this screening.
FIG. 3. Validation of the binding of IFRA3 to IL-15 receptor a subunit using OBTC. The compound IFRA3 was resynthesized on the beads and were incubated with IL-15 RA expressing HeLa cells (red stained) and IL-15RA negative HeLa cells (green stained) individually as well as 1:1 mixture of red and green cells. […]

[1] = target: T2, IL-15 receptor a (IL15RA) (Homo sapiens, UniProt Q13261); assay: in vitro pull-down assay with peptoid-conjugated beads and HeLa cell lysates, Coomassie staining and western blot; type: binding; settings: beads conjugated with compound, 4° C. overnight; band identity confirmed by western blot
T2 construct: Cell lysates from IL-15RA positive HeLa cells (expressing IL15RA) or IL-15RA negative HeLa cells (transfected with IL15RA siRNA to knock down IL15RA); endogenous in cells; host or cells: HeLa
T2 sequence (Q13261 31-267): as above
Method: FIGS. 2A-B. Confirmation of the binding of IFRA3 to IL-15 receptor a subunit. […] Cell lysates from IL-15RA positive HeLa cells (expressing IL15RA) or IL-15RA negative HeLa cells (transfected with IL15RA siRNA to knock down IL15RA) were incubated with beads conjugated with IFRA1, or IFRA2, or IFRA3 at 4° C. overnight. The beads were then washed with RIPA buffer for 3 times, and the binding proteins were eluted with 1% SDS. The yielded lysates were then applied onto 12% SDS-PAGE gel and subjected to Coomassie blue staining. (FIG. 2B) Protein in the gel was transferred to membrane and identified by western blotting analysis with antibody against IL-15RA.
Cell lysates from IL-15RA positive HeLa cells (expressing IL15RA) or IL-15RA negative HeLa cells (transfected with IL15RA siRNA to knock down IL15RA) were incubated with beads conjugated with IFRA1, or IFRA2, or IFRA3 at 4° C. overnight. The beads were then washed with RIPA buffer for 3 times, and the binding proteins were eluted with 1% SDS. The yielded lysates were then applied onto 12% SDS-PAGE gel and subjected to Coomassie blue staining. Protein in the gel was transferred to membrane and identified by western blotting analysis with antibody against IL-15RA. […] Western blot results confirmed the identity of the protein band as IL15RA. Thus, the data support that IFRA3 can bind to IL15RA.

Structure (SMILES) | inhibition of IL-15-stimulated proliferation of CTLL-2 cells (IL-15; with IL-15, 72 hours, WST-1) | binding of cells to beads with resynthesized compound (OBTC validation) (IL-15 Rα; IL-15RA expressing (red) and negative (green) HeLa cells, individually and as 1:1 mixture) | binding to IL-15 receptor subunit a in OBTC screen (hit) (IL-15 Rα; peptoid library beads, red IL-15Rα+ and green IL-15Rα- HeLa cells, 1 hour, 23° C.) | effect on cell proliferation by themselves (IL-15; CTLL-2 cells, compound alone without IL-15) | pull-down of IL15RA from cell lysates [1]
COCCN(CC(=O)NC(CCCCN)C(=O)NC(CCSC)C(=O)NCCCCC(NC(=O)C(CCCCNC(=O)C(CCSC)NC(=O)C(CCCCN)NC(=O)CN(CCOC)C(=O)CN(CCCCN)C(=O)CN(CCCCN)C(=O)CN(CCOC)C(=O)CN(Cc1ccc(OC)cc1)C(=O)CNCC(C)C)NC(=O)C(CCSC)NC(=O)C(CCCCN)NC(=O)CN(CCOC)C(=O)CN(CCCCN)C(=O)CN(CCCCN)C(=O)CN(CCOC)C(=O)CN(Cc1ccc(OC)cc1)C(=O)CNCC(C)C)C(N)=O)C(=O)CN(CCCCN)C(=O)CN(CCCCN)C(=O)CN(CCOC)C(=O)CN(Cc1ccc(OC)cc1)C(=O)CNCC(C)C (centres unmarked) [IFRA3T1] (I: H-[Nleu][N(4-MeOBn)Gly][Nme][Nlys][Nlys][Nme]KMKK-NH2 / II: H-[Nleu][N(4-MeOBn)Gly][Nme][Nlys][Nlys][Nme]KM / III: H-[Nleu][N(4-MeOBn)Gly][Nme][Nlys][Nlys][Nme]KM; amide I:9-II:C, I:10-III:C; configuration not given here) | less effects | – | – | – | –
COCCN(CC(=O)NC(CCCCN)C(=O)NC(CCSC)C(N)=O)C(=O)CN(CCCCN)C(=O)CN(CCCCN)C(=O)CN(CCOC)C(=O)CN(Cc1ccc(OC)cc1)C(=O)CNCC(C)C (centres unmarked) [IFRA3] (H-[Nleu][N(4-MeOBn)Gly][Nme][Nlys][Nlys][Nme]KM-NH2; configuration not given here) | – | only red cells bind to the beads, and the green cells do not bind | binds to the IL-15 receptor subunit a | no effects | can pull down a protein band corresponding to the size of IL15RA
